Assay results as given in patent US11992012B2, “Diaminotriazine compounds” (BASF SE, priority 2018, dated 2024).

What was measured:
Assay in all cases: greenhouse pre-emergence herbicidal test
Format in all cases: in vivo
Details in all cases: 250 g/ha, scale 0 to 100
Alopercurus myosuroides = tested on: Alopercurus myosuroides
Description: (§1) The culture containers used were plastic flowerpots containing loamy sand with approximately 3.0% of humus as the substrate. The seeds of the test plants were sown separately for each species.
(§2) For the pre-emergence treatment, the active ingredients, which had been suspended or emulsified in water, were applied directly after sowing by means of finely distributing nozzles. The containers were irrigated gently to promote germination and growth and subsequently covered with transparent plastic hoods until the plants had rooted. This cover caused uniform germination of the test plants, unless this had been impaired by the active ingredients.
(§3) Depending on the species, the plants were kept at 10-25° C. or 20-35° C., respectively.
(§4) The test period extended over 2 to 4 weeks. During this time, the plants were tended, and their response to the individual treatments was evaluated.
(§5) Evaluation was carried out using a scale from 0 to 100. 100 means no emergence of the plants, or complete destruction of at least the aerial moieties, and 0 means no damage, or normal course of growth. A moderate herbicidal activity is given at values of at least 60, a good herbicidal activity is given at values of at least 70, and a very good herbicidal activity is given at values of at least 85.

Amaranthus retroflexus = tested on: Amaranthus retroflexus
Description: as §1, §2, §3, §4, §5

Echinocloa crus-galli = tested on: Echinocloa crus-galli
Description: as §1, §2, §3, §4, §5

Setaria faberi = tested on: Setaria faberi
Description: The culture containers used were plastic flowerpots containing loamy sand with approximately 3.0% of humus as the substrate. The seeds of the test plants were sown separately for each species. For the pre-emergence treatment, the active ingredients, which had been suspended or emulsified in water, were applied directly after sowing by means of finely distributing nozzles. The containers were irrigated gently to promote germination and growth and subsequently covered with transparent plastic hoods until the plants had rooted. This cover caused uniform germination of the test plants, unless this had been impaired by the active ingredients. […] The test period extended over 2 to 4 weeks. During this time, the plants were tended, and their response to the individual treatments was evaluated. Evaluation was carried out using a scale from 0 to 100. 100 means no emergence of the plants, or complete destruction of at least the aerial moieties, and 0 means no damage, or normal course of growth.

SMILES	herbicidal activity (Alopercurus myosuroides)	herbicidal activity (Amaranthus retroflexus)	herbicidal activity (Echinocloa crus-galli)	herbicidal activity (Setaria faberi)
CC(C)(F)c1nc(N)nc(Nc2c(F)cccc2OCc2ccccc2)n1 [Example 4]	100%	100%	100%	100%
Nc1nc(Nc2c(F)cccc2OCc2ccccc2)nc(C2(F)CCCC2)n1 [Example 5]	85%	98%	100%	98%
Cc1ccc(COc2cccc(F)c2Nc2nc(N)nc(C(C)(C)F)n2)cc1 [Example 9]	80%	95%	100%	100%
COc1cccc(COc2cccc(F)c2Nc2nc(N)nc(C(C)(C)F)n2)c1 [Example 10]	100%	100%	100%	100%
CC(C)(F)c1nc(N)nc(Nc2c(F)cccc2OCc2cccc(F)c2)n1 [Example 11]	100%	100%	100%	100%
Nc1nc(Nc2c(F)cccc2OCc2cccc(F)c2)nc(C2(F)CCCC2)n1 [Example 18]	70%	70%	70%	85%
Nc1nc(Nc2c(F)cccc2OCc2ccccc2F)nc(C2(F)CCCC2)n1 [Example 19]	70%	80%		85%
COc1ccc(COc2cccc(F)c2Nc2nc(N)nc(C(C)(C)F)n2)cc1 [Example 20]	100%	98%	100%	95%
CC(C)(F)c1nc(N)nc(Nc2c(F)cccc2OCc2cnc(Cl)s2)n1 [Example 39]	90%	80%	100%	90%
CC(C)(F)c1nc(N)nc(Nc2c(F)cccc2OCc2ccc(F)c(F)c2)n1 [Example 45]	80%		80%	70%
CC(C)(F)c1nc(N)nc(Nc2c(F)cc(F)cc2OCc2ccccc2)n1 [Example 60]	98%	100%	100%	100%
CC(C)(F)c1nc(N)nc(Nc2c(OCc3ccccc3)cc(F)c(F)c2F)n1 [Example 69]	100%	100%	100%	100%
CC(C)(F)c1nc(N)nc(Nc2c(F)cccc2OCc2c(Cl)cccc2Cl)n1 [Example 78]	100%		100%	75%
CC(C)(F)c1nc(N)nc(Nc2c(F)cccc2OC(F)(F)c2ccccc2)n1 [Example 83]	100%		100%	100%
COC(C)(C)c1nc(N)nc(Nc2c(F)cccc2OCc2ccccc2)n1 [Example 91]	100%	100%	100%	100%
CCc1ccc(COc2cccc(F)c2Nc2nc(N)nc(C(C)(C)F)n2)cc1 [Example 94]	100%	70%		
CC(F)(F)c1nc(N)nc(Nc2c(F)cccc2OCc2ccccc2)n1 [Example 96]	80%	100%	100%	95%
COc1cccc(COc2cc(F)c(F)c(F)c2Nc2nc(N)nc(C(C)(C)F)n2)c1 [Example 98]	80%	90%	100%	100%
CC(C)(F)c1nc(N)nc(Nc2c(F)cccc2OCc2ccsc2Cl)n1 [Example 107]	75%	75%	100%	100%
CC(C)(F)c1nc(N)nc(Nc2c(F)cccc2OCc2ccc(Cl)s2)n1 [Example 120]	75%		100%	90%
CC(C)c1ccc(COc2cccc(F)c2Nc2nc(N)nc(C(C)(C)F)n2)cc1 [Example 143]	90%	100%		
CCOc1cccc(COc2cccc(F)c2Nc2nc(N)nc(C(C)(C)F)n2)c1 [Example 149]	85%		75%	90%

SMILES	herbicidal activity (Alopercurus myosuroides)	herbicidal activity (Amaranthus retroflexus)	herbicidal activity (Echinocloa crus-galli)	herbicidal activity (Setaria faberi)
CC(C)=C(F)c1nc(N)nc(Nc2c(F)ccc(F)c2OCc2ccccc2)n1 [Example 160]	85%			75%
CC(C)(F)c1nc(N)nc(Nc2c(F)c(Br)cc(F)c2OCc2ccccc2)n1 [Example 163]	100%		100%	100%
COc1cccc(COc2c(F)cc(F)c(F)c2Nc2nc(N)nc(C(C)(C)F)n2)c1 [Example 164]	100%		100%	100%
CC(C)(F)c1nc(N)nc(Nc2c(F)ccc(F)c2OCc2ccsc2)n1 [Example 174]	100%		100%	100%
CC(C)(F)c1nc(N)nc(Nc2c(F)cccc2OCc2c(F)cccc2Cl)n1 [Example 177]	85%		100%	95%
COc1ccc(COc2c(F)cc(F)c(F)c2Nc2nc(N)nc(C(C)(C)F)n2)cc1 [Example 180]	90%		100%	100%
Cc1ccccc1COc1c(F)cc(F)c(F)c1Nc1nc(N)nc(C(C)(C)F)n1 [Example 181]	98%		100%	100%
Cc1cccc(COc2c(F)cc(F)c(F)c2Nc2nc(N)nc(C(C)(C)F)n2)c1 [Example 182]	100%		100%	100%
Nc1nc(Nc2c(F)cccc2OCc2ccccc2)nc(C2(F)CC2)n1 [Example 184]	85%	95%	98%	
COc1cccc(COc2ccc(F)c(F)c2Nc2nc(N)nc(C(C)(C)F)n2)c1 [Example 185]	98%		100%	100%
Nc1nc(Nc2c(F)ccc(F)c2OCc2ccccc2)nc(C2(F)CC2)n1 [Example 187]	85%		100%	100%
Nc1nc(Nc2c(F)ccc(F)c2OCc2ccccc2)nc(C(F)C2CC2)n1 (centres unmarked) [Example 189]	98%		100%	100%
CCOc1ccc(COc2c(F)ccc(F)c2Nc2nc(N)nc(C(C)(C)F)n2)cc1 [Example 193]	80%		95%	100%
CC(F)c1nc(N)nc(Nc2c(F)ccc(F)c2OCc2ccccc2)n1 (centres unmarked) [Example 196]	98%		100%	100%
CC1(c2nc(N)nc(Nc3c(F)c(F)cc(F)c3OCc3ccccc3)n2)CCC1 [Example 201]	100%		100%	100%
CC(C)(F)c1nc(N)nc(Nc2c(F)c(F)cc(F)c2OCc2ccccc2F)n1 [Example 203]	100%		100%	100%
CC(C)(F)c1nc(N)nc(Nc2c(F)c(F)cc(F)c2OCc2ccc(F)cc2)n1 [Example 205]	100%		100%	100%
CC(C)(F)c1nc(N)nc(Nc2c(F)c(F)cc(F)c2OCc2ccccc2C2CC2)n1 [Example 218]	95%		85%	100%
COCc1ccc(COc2c(F)cc(F)c(F)c2Nc2nc(N)nc(C(C)(C)F)n2)cc1 [Example 220]	98%		95%	90%
COC(C)(C)c1nc(N)nc(Nc2c(F)c(F)cc(F)c2OCc2cccc(C)c2)n1 [Example 227]	90%		75%	85%
Cc1cccc(C)c1COc1c(F)cc(F)c(F)c1Nc1nc(N)nc(C(C)F)n1 (centres unmarked) [Example 255]	90%		95%	90%
